For 23 compounds, IC50 and EC50 results are on record in patent publication US10336762B2 (priority 2017, dated 2019).

The target of assay [1] is IRAK4 enzyme (Homo sapiens (Human), UniProt Q9NWZ3). Put plainly: biochemical. Format: biochemical. The note with it: IRAK4 enzyme, TR-FRET, 500 μM ATP. In general terms: In TR-FRET formats the signal depends on donor and acceptor labels being close together.
The test system of assay [2] is TNFα. In words: cells. Format: cell-based, human. The note with it: Homo sapiens, Monocyte, LPS-stimulated human monocytes, TNFα content; read-out: EC50 TNF.

For orientation: IC50 means the concentration at which inhibition is half-maximal. A higher IC50 goes with weaker potency. What is called EC50 is the concentration giving half of the maximal effect.

SMILES strings stand for the structures.

IRAK4 enzyme, sequence (Q9NWZ3 whole entry): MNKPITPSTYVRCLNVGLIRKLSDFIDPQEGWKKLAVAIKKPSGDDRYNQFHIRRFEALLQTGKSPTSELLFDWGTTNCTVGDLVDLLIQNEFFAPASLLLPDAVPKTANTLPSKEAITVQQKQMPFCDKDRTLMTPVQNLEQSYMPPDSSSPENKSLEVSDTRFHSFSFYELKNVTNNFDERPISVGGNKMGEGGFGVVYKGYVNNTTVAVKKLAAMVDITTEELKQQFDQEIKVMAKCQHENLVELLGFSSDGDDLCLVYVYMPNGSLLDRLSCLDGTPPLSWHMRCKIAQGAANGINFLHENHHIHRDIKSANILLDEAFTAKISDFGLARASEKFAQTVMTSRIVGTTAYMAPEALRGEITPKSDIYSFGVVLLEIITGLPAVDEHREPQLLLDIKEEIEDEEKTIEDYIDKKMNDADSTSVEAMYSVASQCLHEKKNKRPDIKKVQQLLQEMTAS

The compound `CC(C)(O)[C@H](F)CNC(=O)c1cnc(-c2ccc3cc(C#N)cnn23)cc1N[C@@H]1CCOC[C@H]1F` [Example 150, 6-(3-cyanopyrrolo[1,2-b]pyridazin-7-yl)-N-((R)-2-fluoro-3-hydroxy-3-methylbutyl)-4-(((3S,4R)-3-fluorotetrahydro-2H-pyran-4-yl)amino)nicotinamide] returned an IC50 in assay [1] of less than 0.001 µM. Besides, the EC50 in assay [2] is 0.051 µM.
For `CC(C)(O)[C@H](F)CNC(=O)c1cnc(-c2ccc3cc(C#N)cnn23)cc1N[C@H]1CCOC[C@@H]1F` [Example 151, 6-(3-cyanopyrrolo[1,2-b]pyridazin-7-yl)-N-((R)-2-fluoro-3-hydroxy-3-methylbutyl)-4-(((3R,4S)-3-fluorotetrahydro-2H-pyran-4-yl)amino) nicotinamide], in that order: less than 0.001 µM and 0.096 µM.
Taken in the same sequence, the figures for `CC(C)Nc1cc(-c2ccc3cc(C#N)cnn23)ncc1C(=O)NC1CC2(CC(=O)C2)C1` [Example 152, 6-(3-cyanopyrrolo[1,2-b]pyridazin-7-yl)-4-(isopropylamino)-N-(6-oxospiro[3.3]heptan-2-yl)nicotinamide] were 0.002 µM and 0.191 µM.
On to `CC(C)Nc1cc(-c2ccc3cc(C#N)cnn23)ncc1C(=O)NC1CC2(C1)CC(C)(O)C2` (stereo not shown) [Example 153, 6-(3-cyanopyrrolo[1,2-b]pyridazin-7-yl)-N-(6-hydroxy-6-methylspiro[3.3]heptan-2-yl)-4-(isopropylamino)nicotinamide], for which the IC50 in assay [1] was less than 0.001 µM. Besides, in assay [2], the EC50 was found to be 0.091 µM.
Taken in the same sequence, the figures for `CC1(O)CCC(Nc2cc(-c3ccc4cc(C#N)cnn34)ncc2C(=O)NC[C@@H](F)C(C)(C)O)CC1` (stereo partly drawn) [Example 154, 6-(3-cyanopyrrolo[1,2-b]pyridazin-7-yl)-N-((R)-2-fluoro-3-hydroxy-3-methylbutyl)-4-(((1s,4S)-4-hydroxy-4-methyl-cyclohexyl)amino)nicotinamide] were less than 0.001 µM and 0.034 µM.
For `CN1CCC(Nc2cc(-c3ccc4cc(C#N)cnn34)ncc2C(=O)NC[C@@H](F)C(C)(C)O)CC1=O` (stereo partly drawn) [Example 155, 6-(3-cyanopyrrolo[1,2-b]pyridazin-7-yl)-N-((R)-2-fluoro-3-hydroxy-3-methylbutyl)-4-((1-methyl-2-oxopiperidin-4-yl)amino) nicotinamide], in that order: 0.001 µM and 0.15 µM.
In assay [1], `CC(C)(O)[C@H](F)CNC(=O)c1cnc(-c2ccc3cc(C#N)cnn23)cc1NC1CCN(C(=O)c2ccoc2)CC1` [Example 156, (R)-6-(3-cyanopyrrolo[1,2-b]pyridazin-7-yl)-N-(2-fluoro-3-hydroxy-3-methylbutyl)-4-((1-(furan-3-carbonyl)piperidin-4-yl)amino)nicotinamide] registered a concentration for half-maximal inhibition (IC50) of 0.004 µM. The EC50 in assay [2] turned out to be 0.179 µM.
Taken in the same sequence, the figures for `CC(C)Nc1cc(-c2ccc3cc(C#N)cnn23)ncc1C(=O)NCc1ccc(=O)[nH]c1` [Example 157, 6-(3-cyanopyrrolo[1,2-b]pyridazin-7-yl)-4-(isopro-pylamino)-N-((6-oxo-1,6-dihydropyridin-3-yl)methyl) nicotinamide] were 0.023 µM and 0.501 µM.
Taken in the same sequence, the figures for `COC1(C)CN(C(=O)C23CCC(Nc4cc(-c5ccc6cc(C#N)cnn56)ncc4C(=O)NC[C@@H](F)C(C)(C)O)(CC2)CC3)C1` [Example 158, (R)-6-(3-cyanopyrrolo[1,2-b]pyridazin 7-yl)-N-(2-fluoro-3-hydroxy-3-methylbutyl)-4-((4-(3-methoxy-3-methylazetidine-1-carbonyl)bicyclo[2.2.2]octan-1-yl)amino)nicotinamide] were 0.002 µM and 0.099 µM.
For `CC1(O)CN(C(=O)C23CCC(Nc4cc(-c5ccc6cc(C#N)cnn56)ncc4C(=O)NC[C@@H](F)C(C)(C)O)(CC2)CC3)C1` [Example 159, (R)-6-(3-cyanopyrrolo[1,2-b]pyridazin-7-yl)-N-(2-fluoro-3-hydroxy-3-methylbutyl)-4-((4-(3-hydroxy-3-methylazetidine-1-carbonyl)bicyclo[2.2.2]octan-1-yl)amino)nicotinamide], in that order: 0.001 µM and 0.184 µM.
For the compound `CC(C)(O)[C@H](F)CNC(=O)c1cnc(-c2ccc3cc(C#N)cnn23)cc1N[C@H]1C[C@H](OC(=O)NC2CC2)C1` [Example 160, (1R,3r)-3-((2-(3-cyano-pyrrolo[1,2-b]pyridazin-7-yl)-5-(((R)-2-fluoro-3-hydroxy-3-methylbutyl)carbamoyl)pyridin-4-yl)amino)cyclobutyl cyclopropylcarbamate], the concentration for half-maximal inhibition (IC50) in assay [1] came to 0.465 µM. Also, in assay [2], the half-maximal effective concentration (EC50) was more than 10 µM.
For `CN(C)C(=O)O[C@H]1C[C@H](Nc2cc(-c3ccc4cc(C#N)cnn34)ncc2C(=O)NC[C@@H](F)C(C)(C)O)C1` [Example 161, (1R,3r)-3-((2-(3-cyano-pyrrolo[1,2-b]pyridazin-7-yl)-5-(((R)-2-fluoro-3-hydroxy-3-methylbutyl)carbamoyl)pyridin-4-yl)amino)cyclobutyl dimethylcarbamate], in that order: 1 µM and more than 10 µM.
As for `CNC(=O)O[C@H]1C[C@H](Nc2cc(-c3ccc4cc(C#N)cnn34)ncc2C(=O)NC[C@@H](F)C(C)(C)O)C1` [Example 162, (1R,3r)-3-((2-(3-cyano-pyrrolo[1,2-b]pyridazin-7-yl)-5-(((R)-2-fluoro-3-hydroxy-3-methylbutyl)carbamoyl)pyridin-4-yl)amino)cyclobutyl methylcarbamate], it took 0.376 µM to reach half-maximal inhibition in assay [1] (IC50). For the same compound, the EC50 in assay [2] is more than 10 µM.
For `CC(C)(O)[C@H](F)CNC(=O)c1cnc(-c2ccc3cc(C#N)cnn23)cc1N[C@H]1CC[C@H](OC(=O)NC2CC2)CC1` [Example 163, (1R,4r)-4-((2-(3-cyano-pyrrolo[1,2-b]pyridazin-7-yl)-5-(((R)-2-fluoro-3-hydroxy-3-methylbutyl)carbamoyl)pyridin-4-yl)amino)cyclohexyl cyclopropylcarbamate], in that order: 0.09 µM and more than 10 µM.
For `CN(C)C(=O)O[C@H]1CC[C@H](Nc2cc(-c3ccc4cc(C#N)cnn34)ncc2C(=O)NC[C@@H](F)C(C)(C)O)CC1` [Example 164, (1R,4r)-4-((2-(3-cyano-pyrrolo[1,2-b]pyridazin-7-yl)-5-(((R)-2-fluoro-3-hydroxy-3-methylbutyl)carbamoyl)pyridin-4-yl)amino)cyclohexyl dimethylcarbamate], in that order: 0.132 µM and 9.94 µM.
The compound `CNC(=O)O[C@H]1CC[C@H](Nc2cc(-c3ccc4cc(C#N)cnn34)ncc2C(=O)NC[C@@H](F)C(C)(C)O)CC1` [Example 165, (1R,4r)-4-((2-(3-cyano-pyrrolo[1,2-b]pyridazin-7-yl)-5-(((R)-2-fluoro-3-hydroxy-3-methylbutyl)carbamoyl)pyridin-4-yl)amino)cyclohexyl methylcarbamate] displayed an IC50 in assay [1] of 0.059 µM. The EC50 in assay [2] is more than 10 µM.
For `CC(C)(O)[C@H](F)CNC(=O)c1cnc(-c2ccc3cc(C#N)cnn23)cc1N[C@H]1CC[C@@H](OC(=O)NC2CC2)CC1` [Example 166, (1S,4s)-4-((2-(3-cyano-pyrrolo[1,2-b]pyridazin-7-yl)-5-(((R)-2-fluoro-3-hydroxy-3-methylbutyl)carbamoyl)pyridin-4-yl)amino)cyclohexyl cyclopropylcarbamate], in that order: 0.741 µM and more than 10 µM.
In the case of `CN(C)C(=O)O[C@H]1CC[C@@H](Nc2cc(-c3ccc4cc(C#N)cnn34)ncc2C(=O)NC[C@@H](F)C(C)(C)O)CC1` [Example 167, (1S,4s)-4-((2-(3-cyano-pyrrolo[1,2-b]pyridazin-7-yl)-5-(((R)-2-fluoro-3-hydroxy-3-methylbutyl)carbamoyl)pyridin-4-yl)amino)cyclohexyl dimethylcarbamate], inhibition in assay [1] was half-maximal at 1 µM (IC50). The EC50 in assay [2] was more than 10 µM.
`CNC(=O)O[C@H]1CC[C@@H](Nc2cc(-c3ccc4cc(C#N)cnn34)ncc2C(=O)NC[C@@H](F)C(C)(C)O)CC1` [Example 168, (1S,4s)-4-((2-(3-cyano-pyrrolo[1,2-b]pyridazin-7-yl)-5-(((R)-2-fluoro-3-hydroxy-3-methylbutyl)carbamoyl)pyridin-4-yl)amino)cyclohexyl methylcarbamate] displayed an IC50 in assay [1] of 1 µM. Further, the EC50 in assay [2] is more than 10 µM.
`CC(C)(O)[C@H](F)CNC(=O)c1cnc(-c2ccc3cc(C#N)cnn23)cc1N[C@H]1C[C@H](O)C1` [Example 169, 6-(3-cyanopyrrolo[1,2-b]pyridazin-7-yl)-N-((R)-2-fluoro-3-hydroxy-3-methylbutyl)-4-(((1r,3R)-3-hydroxycyclobutyl)amino) nicotinamide] gave an IC50 in assay [1] of 0.183 µM. For the same compound, the half-maximal effective concentration (EC50) in assay [2] is more than 10 µM.
For `CC(C)(O)[C@H](F)CNC(=O)c1cnc(-c2ccc3cc(C#N)cnn23)cc1NCc1cccnc1` [Example 170, (R)-6-(3-cyanopyrrolo[1,2-b]pyridazin-7-yl)-N-(2-fluoro-3-hydroxy-3-methylbutyl)-4-((pyridin-3-ylmethyl)amino) nicotinamide], in assay [1], 0.003 µM corresponded to half-maximal inhibition (IC50). Moreover, in assay [2], the EC50 turned out to be 0.217 µM.
Consider `CC(C)(O)[C@H](F)CNC(=O)c1cnc(-c2ccc3cc(C#N)cnn23)cc1NCc1ccccn1` [Example 171, (R)-6-(3-cyanopyrrolo[1,2-b]pyridazin-7-yl)-N-(2-fluoro-3-hydroxy-3-methylbutyl)-4-((pyridin-2-ylmethyl)amino) nicotinamide], for which, in assay [1], the midpoint of inhibition, the IC50, lay at 0.006 µM. Moreover, the EC50 in assay [2] was 0.382 µM.
Taken in the same sequence, the figures for `CC(C)(O)[C@H](F)CNC(=O)c1cnc(-c2ccc3cc(C#N)cnn23)cc1Nc1ccc(-c2cn[nH]c2)nc1` [Example 172, (R)-4-((6-(1H-pyrazol-4-yl)pyridin-3-yl)amino)-6-(3-cyanopyrrolo[1,2-b]pyridazin-7-yl)-N-(2-fluoro-3-hydroxy-3-methylbutyl) nicotinamide] were less than 0.001 µM and 0.076 µM.
